This note sets out measurements from US7491825B2, “Basic non-peptide bradykinin antagonists and pharmaceutical compositions therefrom” (Menarini Ricerche S.p.A., priority 2002, dated 2009).

One may read the pKi as the negative decadic logarithm of the Ki, by convention in mol/L. A lower pKi goes with a high Ki.

In the test the target is T1, human B2 receptor (Homo sapiens, UniProt P30411).
T1 construct: human B2 receptor expressed in human fibroblasts W138; endogenous in cells; host or cells: human fibroblasts W138 (WI-38)
T1 sequence (P30411 1-391): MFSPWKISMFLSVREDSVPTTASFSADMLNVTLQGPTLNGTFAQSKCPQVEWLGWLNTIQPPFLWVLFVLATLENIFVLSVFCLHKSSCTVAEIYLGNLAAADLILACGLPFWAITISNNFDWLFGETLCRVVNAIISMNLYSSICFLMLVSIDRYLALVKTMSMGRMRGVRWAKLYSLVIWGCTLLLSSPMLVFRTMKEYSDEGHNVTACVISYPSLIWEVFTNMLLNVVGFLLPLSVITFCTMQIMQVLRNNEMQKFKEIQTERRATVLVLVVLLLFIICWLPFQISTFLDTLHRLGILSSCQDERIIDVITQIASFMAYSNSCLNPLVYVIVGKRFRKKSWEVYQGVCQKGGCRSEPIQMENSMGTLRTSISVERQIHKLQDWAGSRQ
In words: binding to the human B2 receptor expressed in human fibroblasts W138. The text has this: In the following the binding values are reported expressed as pKi.

[1] abbreviates: human B2 receptor expressed in human fibroblasts W138, read-out: pKi (converted).
Where [2] appears, read: human B2 receptor expressed in human fibroblasts W138.

Counter-ions that a name gives are not always drawn. Like-named read-outs stand apart in the source and are kept apart here.

For `CC[C@@](C)(NS(=O)(=O)c1ccc(Cl)c(COc2cccc3c(C)cc(C)nc23)c1Cl)C(=O)N1CCN(C(=O)[C@@H](N)CCCCN(C)C)CC1` [Example 61, (R)—N-[1-[4-(2-(S)-Amino-6-dimethylamino-hexanoyl)-piperazine-1-carbonyl]-1-methyl-propyl]-2,4-dichloro-3-(2,4-dimethyl-quinolin-8-yloxymethyl)-benzenesulfonamide tris trifluoroacetate], the Ki under setting [1] is 0.501 nM. Regarding `Cc1ccc2cccc(OCc3c(Cl)ccc(S(=O)(=O)NC(C)(C)C(=O)N4CCN(C(=N)N)CC4)c3Cl)c2n1` [Example 20, 4-{2-[2,4-Dichloro-3-(2-methyl-quinolin-8-yloxymethyl)-benzenesulfonylamino]-2-methyl-propionyl}-piperazine-1-carboxamidine], the Ki is 0.631 nM.

As for `Cc1ccc2cccc(OCc3c(Cl)ccc(S(=O)(=O)NC(C)(C)C(=O)N4CCN(C(=O)C[C@@H](N)CCCN(C)C)CC4)c3Cl)c2n1` [Example 29, N-{2-[4-(3-(S)-Amino-6-dimethylamino-hexanoyl)-piperazin-1-yl]-1,1-dimethyl-2-oxo-ethyl}-2,4-dichloro-3-(2-methyl-8-quinolinoxymethyl)-benzenesulfonamide tris trifluoroacetate], under setting [1], the Ki was 0.631 nM. In turn, `Cc1cc(C)c2cccc(OCc3c(Cl)ccc(S(=O)(=O)NC4(C(=O)N5CCC(N6CCN(C(=O)[C@@H](N)CCCNC(=N)N)CC6)CC5)CCCC4)c3Cl)c2n1` [Example 38] had a Ki of 0.501 nM. `CC[C@@](C)(NS(=O)(=O)c1ccc(Cl)c(COc2cccc3c(C)cc(C)nc23)c1Cl)C(=O)N1CCN(C(=O)C[C@@H](N)CCCNC(=N)N)CC1` [Example 70, (R)—N-[4-(3-(S)-Amino-6-guanidino-hexanoyl)-piperazine-1-carbonyl]-1-methyl-propyl]-2,4-dichloro-3-(2,4-dimethyl-quinolin-8-yloxymethyl)-benzenesulfonamide tris trifluoroacetate] gave a Ki of 0.631 nM. On to `Cc1ccc2cccc(OCc3c(Cl)ccc(S(=O)(=O)NC(C)(C)C(=O)N4CCN(C(=O)CNC5CCNCC5)CC4)c3Cl)c2n1` [Example 26, N-{2-[4-[N-(4-Piperidyl)glycyl]-piperazin-1-yl]-1,1-dimethyl-2-oxo-ethyl}-2,4-dichloro-3-(2-methyl-8-quinolinoxymethyl)-benzenesulfonamide tris trifluoroacetate], for which the Ki under setting [1] is 0.501 nM. Compound `CCN=C(NCC)NCCCC[C@H](N)C(=O)N1CCN(C(=O)C2(NS(=O)(=O)c3ccc(Cl)c(COc4cccc5c(C)cc(C)nc45)c3Cl)CCCC2)CC1` [Example 43, (2S)—N-(1-{4-[2-Amino-6-(N′,N″-diethyl-guanidino)-hexanoyl]-piperazine-1-carbonyl}-cyclopentyl)-2,4-dichloro-3-(2,4-dimethyl-quinolin-8-yloxymethyl)-benzenesulfonamide] showed a Ki of 0.398 nM. Regarding `Cc1cc(C)c2cccc(OCc3c(Cl)ccc(S(=O)(=O)NC(C)(C)C(=O)N4CCN(C(=O)[C@@H](N)CCCCN(C)C)CC4)c3Cl)c2n1` [Example 45, N-[2-[4-(2-(S)-Amino-6-dimethylamino-hexanoyl)-piperazin-1-yl]-1,1-dimethyl-2-oxo-ethyl]-2,4-dichloro-3-(2,4-dimethyl-quinolin-8-yloxymethyl)-benzenesulfonamide], under setting [2], the pKi was determined as 9.2. Regarding `Cc1cc(C)c2cccc(OCc3c(Cl)ccc(S(=O)(=O)NC4(C(=O)N5CCN(C(=O)C[C@H](CCCNC(=NC6CCCCC6)NC6CCCCC6)NC(=NC6CCCCC6)NC6CCCCC6)CC5)CCCC4)c3Cl)c2n1.O=C(O)C(F)(F)F.O=C(O)C(F)(F)F.O=C(O)C(F)(F)F` [Example 80, N-(1-{4-[3-(S),6-Bis-(N′,N″-dicyclohexyl-guanidino)-hexaoyl]-piperazine-1-carbonyl}-cyclopentyl)-2,4-dichloro-3-(2,4-dimethyl-quinolin-8-yloxymethyl)-benzensulfonamide tris trifluoroacetate], the pKi under setting [2] is on record as 9.2. Turning to `CC[C@@](C)(NS(=O)(=O)c1ccc(Cl)c(COc2cccc3c(C)cc(C)nc23)c1Cl)C(=O)N1CCN(C(=O)C[C@@H](N)CCCN)CC1` [Example 72, (R)—N-[4-(3-(S)-Amino-6-amino-hexanoyl)-piperazine-1-carbonyl]-1-methyl-propyl]-2,4-dichloro-3-(2,4-dimethyl-quinolin-8-yloxymethyl)-benzenesulfonamide tris trifluoroacetate], the Ki under setting [1] is 0.398 nM. Compound `Cc1ccc2cccc(OCc3c(Cl)ccc(S(=O)(=O)NC(C)(C)C(=O)N4CCN(C(=O)[C@H](N)CCCNC(=N)N)CC4)c3Cl)c2n1` [Example 51, N-[2-[4-(2-(R)-Amino-5-guanidino-pentanoyl)-piperazin-1-yl]-1,1-dimethyl-2-oxo-ethyl]-2,4-dichloro-3-(2-methyl-quinolin-8-yloxymethyl)-benzenesulfonamide] had a Ki of 0.398 nM. For the compound `Cc1cc(C)c2cccc(OCc3c(Cl)ccc(S(=O)(=O)N[C@H](C)C(C)C(=O)N4CCN(C(=O)CN5CCN(CCNC(=N)N)CC5)CC4)c3Cl)c2n1.O=C(O)C(F)(F)F.O=C(O)C(F)(F)F.O=C(O)C(F)(F)F.O=C(O)C(F)(F)F` (stereo partly shown) [Example 71], the pKi under setting [2] worked out at 9.4. `Cc1cc(C)c2cccc(OCc3c(Cl)ccc(S(=O)(=O)NC4(C(=O)N5CCN(C(=O)CCCCCNC(=N)N)CC5)CCCC4)c3Cl)c2n1` [Example 67, N-[1-[4-(6-Guanidino-hexanoyl)-piperazine-1-carbonyl]-cyclopentyl]-2,4-dichloro-3-(2,4-dimethyl-quinolin-8-yloxymethyl)-benzenesulfonamide bis trifluoroacetate]: under setting [1], the Ki is 0.794 nM. In the case of `Cc1cc(C)c2cccc(OCc3c(Cl)ccc(S(=O)(=O)NC4(C(=O)N5CCN(C[C@H](N)CCCCN)CC5)CCCC4)c3Cl)c2n1` [Example 98, 2,4-Dichloro-N-{1-[4-(2(R),6-diamino-hexyl)-piperazine-1-carbonyl]-cyclopentyl}-3-(2,4-dimethyl-quinolin-8-yloxymethyl)-benzenesulfonamide tetra trifluoroacetate], the Ki under setting [1] is 0.631 nM. “N-[1-[4-(2-(S)-Trimethylammonium-6-trimethylammonium-hexanoyl)-piperazin-1-yl]-cyclopentyl]-2,4-dichloro-3-(2,4-dimethyl-quinolin-8-yloxymethyl)-benzenesulfonamide tris trifluoroacetate [Example 88]” showed a negative logarithm of the Ki (pKi) under setting [2] of 9.7.

For `Cc1cc(C)c2cccc(OCc3c(Cl)ccc(S(=O)(=O)NC4(C(=O)N5CCN(C(=N)NCCNCCCN)CC5)CCCC4)c3Cl)c2n1` [Example 96, N-[2-(3-Amino-propylamino)-ethyl]-4-{1-[2,4-dichloro-3-(2,4-dimethyl-quinolin-8-yloxymethyl)-benzenesulfonylamino]-cyclopentanecarbonyl}-piperazine-1-carboxamidine bis trifluoroacetate], the Ki under setting [1] was 0.794 nM.

`CNCCCCCNCC1CCN(C(=O)C2(NS(=O)(=O)c3ccc(Cl)c(COc4cccc5c(C)cc(C)nc45)c3Cl)CCCC2)CC1` [Example 106, 2,4-Dichloro-3-(2,4-dimethyl-quinolin-8-yloxymethyl)-N-(1-{4-[(5-methylamino-pentylamino)-methyl]-piperidine-1-carbonyl}-cyclopentyl)-benzenesulfonamide tris trifluoroacetate]: under setting [1], the Ki was 0.398 nM.

For the compound `Cc1cc(C)c2cccc(OCc3c(Cl)ccc(S(=O)(=O)NC(C)(C)C(=O)N4CCN(C(=O)C[C@@H](N)CCCN(C)C)CC4)c3Cl)c2n1` [Example 46, N-[2-[4-(3-(S)-Amino-6-dimethylamino-hexanoyl)-piperazin-1-yl]-1,1-dimethyl-2-oxo-ethyl]-2,4-dichloro-3-(2,4-dimethyl-quinolin-8-yloxymethyl)-benzenesulfonamide], the Ki under setting [1] was 0.501 nM. In the case of “N-[1-[4-(2-(S)-Dimethylamino-6-dimethylamino-hexanoyl)-piperazin-1-yl]-cyclopentyl]-2,4-dichloro-3-(2,4-dimethyl-quinolin-8-yloxymethyl)-benzenesulfonamide tris trifluoroacetate [Example 85]”, the pKi under setting [2] is 9.3. Still for that read-out and setting: with `Cc1cc(C)c2cccc(OCc3c(Cl)ccc(S(=O)(=O)NC4(C(=O)N5CCN(C(=O)CCCCC[N+](C)(C)C)CC5)CCCC4)c3Cl)c2n1` [Example 91, N-{1-[4-(6-Trimethylammonium-hexanoyl)-piperazine-1-carbonyl]-cyclopentyl}-2,4-dichloro-3-(2,4-dimethyl-quinolin-8-yloxymethyl)-benzenesulfonamide bis trifluoroacetate] the figure was 9.3. As for `Cc1cc(C)c2cccc(OCc3c(Cl)ccc(S(=O)(=O)NC4(C(=O)N5CCN(C(=O)[C@@H](N)CCCC[N+](C)(C)C)CC5)CCCC4)c3Cl)c2n1` [Example 79, N-{1-[4-(2-(S)-Amino-6-trimethylammonium-hexanoyl)-piperazine-1-carbonyl]-cyclopentyl}-2,4-dichloro-3-(2,4-dimethyl-quinolin-8-yloxymethyl)-benzenesulfonamide tris trifluoroacetate], under setting [2], the pKi is given as 9.2. The compound `CCN=C(NCC)NCCC[C@H](N)C(=O)N1CCN(C(=O)C2(NS(=O)(=O)c3ccc(Cl)c(COc4cccc5c(C)cc(C)nc45)c3Cl)CCCC2)CC1` [Example 44] had a Ki of 0.0794 nM.
